Values of other authors in US20150132345A1, “NITRIC OXIDE-SEQUESTERING TOPICAL FORMULATIONS” (priority 2011, published 2015).

Key:
Conditions in all cases: multiple 30 minutes treatments of 160 ppm nitric oxide
Staphylococcus aureus = test system: Staphylococcus aureus
Escherichia coli = test system: Escherichia coli
Pseudomonas aeruginosa = test system: Pseudomonas aeruginosa

In the case of [N]=O [nitric oxide], the “decrease in the bacterial load” value (Staphylococcus aureus) is given as > 5 log 10 colony forming unit per milliliter (CFU/ml), the “decrease in the bacterial load” value (Escherichia coli) is given as > 5 log 10 colony forming unit per milliliter (CFU/ml) and the “decrease in the bacterial load” value (Pseudomonas aeruginosa) is given as > 5 log 10 colony forming unit per milliliter (CFU/ml).
